Results taken from US9469650B2, “Melampomagnolide B derivatives” (BOARD OF TRUSTEES OF THE UNIVERSITY OF ARKANSAS, priority 2013, dated 2016).

Experiments:
NCI-H460 = assay: panel of 60 human tumor cell lines, growth inhibition (Non-Small Cell Lung Cancer)
HCT-15 = assay: panel of 60 human tumor cell lines, growth inhibition (Colon Cancer)
SK-MEL-5 = assay: panel of 60 human tumor cell lines, growth inhibition (Melanoma); details: for Percent Growth: 8K-MEL-5
SN12C = assay: panel of 60 human tumor cell lines, growth inhibition (Renal Cancer)
MDA-MB-435 = assay: panel of 60 human tumor cell lines, growth inhibition (Melanoma)
SK-MEL-2 = assay: as above
A549/ATCC = assay: panel of 60 human tumor cell lines, growth inhibition (Non-Small Cell Lung Cancer); details: for Percent Growth: A549/ATCC
ACHN = assay: panel of 60 human tumor cell lines, growth inhibition (Renal Cancer)
SF-268 = assay: panel of 60 human tumor cell lines, growth inhibition (CNS Cancer)
BT-549 = assay: panel of 60 human tumor cell lines, growth inhibition (Breast Cancer)
OVCAR-8 = assay: panel of 60 human tumor cell lines, growth inhibition (Ovarian Cancer)
M14 = assay: panel of 60 human tumor cell lines, growth inhibition (Melanoma)
HS 578T = assay: panel of 60 human tumor cell lines, growth inhibition (Breast Cancer); details: for Percent Growth: HS 578T
IGROV1 = assay: panel of 60 human tumor cell lines, growth inhibition (Ovarian Cancer); details: for Percent Growth: IGROVI
MCF7 = assay: panel of 60 human tumor cell lines, growth inhibition (Breast Cancer); details: for GI50: MCF7, MCF7; for Percent Growth: MCF7
TK-10 = assay: panel of 60 human tumor cell lines, growth inhibition (Renal Cancer); details: for GI50: TK-10, TK-10; for Percent Growth: TK-10
NCI-H226 = assay: panel of 60 human tumor cell lines, growth inhibition (Non-Small Cell Lung Cancer)
MDA-MB-231/ATCC = assay: panel of 60 human tumor cell lines, growth inhibition (Breast Cancer); details: for Percent Growth: MDA-MB-231/ATCC

## C=C1C(=O)O[C@H]2[C@H]1CC/C(COC(=O)NCCc1ccccn1)=C\CC[C@@]1(C)O[C@@H]21 [JVM 61, ((1aR,7aS,10aS,10bS,E)-1a-methyl-8-methylene-9-oxo-1a,2,3,6,7,7a,8,9,10a,10b-decahydrooxireno[2′,3′:9,10]cyclodeca[1,2-b]furan-5-yl)methyl-(2-(pyridin-2-yl)ethyl)carbamate]
NCI-H460; Homo sapiens, NCI-H460
  GI50: 14.4 µM
NCI-H460; Homo sapiens, NCI-H460, read-out: LC50
  CC50: 97.4 µM
NCI-H460; Homo sapiens, NCI-H460, read-out: TGI
  IC (TGI): 37.5 µM
NCI-H460; NCI-H460, Log10 Concentration −4.0
  Percent Growth: −51%
NCI-H460; NCI-H460, Log10 Concentration −5.0
  Percent Growth: 69%
NCI-H460; NCI-H460, Log10 Concentration −6.0
  Percent Growth: 102%
NCI-H460; NCI-H460, Log10 Concentration −7.0
  Percent Growth: 102%
NCI-H460; NCI-H460, Log10 Concentration −8.0
  Percent Growth: 104%
HCT-15; HCT-15, Log10 Concentration −4.0
  Percent Growth: −81%
HCT-15; HCT-15, Log10 Concentration −5.0
  Percent Growth: 22%
HCT-15; HCT-15, Log10 Concentration −6.0
  Percent Growth: 89%
HCT-15; HCT-15, Log10 Concentration −7.0
  Percent Growth: 97%
HCT-15; HCT-15, Log10 Concentration −8.0
  Percent Growth: 98%
HCT-15; Homo sapiens, HCT-15
  GI50: 3.5 µM
HCT-15; Homo sapiens, HCT-15, read-out: LC50
  CC50: 50.1 µM
HCT-15; Homo sapiens, HCT-15, read-out: TGI
  IC (TGI): 15.4 µM
SK-MEL-5; Log10 Concentration −4.0
  Percent Growth: −94%
SK-MEL-5; Log10 Concentration −5.0
  Percent Growth: 50%
SK-MEL-5; Log10 Concentration −6.0
  Percent Growth: 96%
SK-MEL-5; Log10 Concentration −7.0
  Percent Growth: 95%
SK-MEL-5; Log10 Concentration −8.0
  Percent Growth: 96%
SK-MEL-5; Homo sapiens, SK-MEL-5
  GI50: 9.78 µM
SK-MEL-5; Homo sapiens, SK-MEL-5, read-out: LC50
  CC50: 49.1 µM
SK-MEL-5; Homo sapiens, SK-MEL-5, read-out: TGI
  IC (TGI): 22.1 µM
SN12C; Homo sapiens
  GI50: 6.61 µM
SN12C; Homo sapiens, read-out: LC50
  CC50: 66.3 µM
SN12C; Homo sapiens, read-out: TGI
  IC (TGI): 25.4 µM
SN12C; Log10 Concentration −4.0
  Percent Growth: −70%
SN12C; Log10 Concentration −5.0
  Percent Growth: 41%
SN12C; Log10 Concentration −6.0
  Percent Growth: 91%
SN12C; Log10 Concentration −7.0
  Percent Growth: 92%
SN12C; Log10 Concentration −8.0
  Percent Growth: 95%
MDA-MB-435; Homo sapiens, MDA-MB-435
  GI50: 6.01 µM
MDA-MB-435; Homo sapiens, MDA-MB-435, read-out: LC50
  CC50: 82.4 µM
MDA-MB-435; Homo sapiens, MDA-MB-435, read-out: TGI
  IC (TGI): 24.7 µM
MDA-MB-435; MDA-MB-435, Log10 Concentration −4.0
  Percent Growth: −58%
MDA-MB-435; MDA-MB-435, Log10 Concentration −5.0
  Percent Growth: 38%
MDA-MB-435; MDA-MB-435, Log10 Concentration −6.0
  Percent Growth: 94%
MDA-MB-435; MDA-MB-435, Log10 Concentration −7.0
  Percent Growth: 94%
MDA-MB-435; MDA-MB-435, Log10 Concentration −8.0
  Percent Growth: 97%
SK-MEL-2; Homo sapiens, SK-MEL-2
  GI50: 15.1 µM
SK-MEL-2; Homo sapiens, SK-MEL-2, read-out: LC50
  CC50: 69 µM
SK-MEL-2; Homo sapiens, SK-MEL-2, read-out: TGI
  IC (TGI): 32.3 µM
SK-MEL-2; SK-MEL-2, Log10 Concentration −4.0
  Percent Growth: −74%
SK-MEL-2; SK-MEL-2, Log10 Concentration −5.0
  Percent Growth: 77%
SK-MEL-2; SK-MEL-2, Log10 Concentration −6.0
  Percent Growth: 112%
SK-MEL-2; SK-MEL-2, Log10 Concentration −7.0
  Percent Growth: 110%
SK-MEL-2; SK-MEL-2, Log10 Concentration −8.0
  Percent Growth: 109%
A549/ATCC; Log10 Concentration −4.0
  Percent Growth: −54%
A549/ATCC; Log10 Concentration −5.0
  Percent Growth: 64%
A549/ATCC; Log10 Concentration −6.0
  Percent Growth: 6.7%
A549/ATCC; Log10 Concentration −8.0
  Percent Growth: 95%
A549/ATCC; Homo sapiens, A549
  GI50: 13.1 µM
A549/ATCC; Homo sapiens, A549, read-out: LC50
  CC50: 92 µM
A549/ATCC; Homo sapiens, A549, read-out: TGI
  IC (TGI): 34.7 µM
ACHN; Homo sapiens
  GI50: 2.75 µM
ACHN; Homo sapiens, read-out: LC50
  CC50: 34.5 µM
ACHN; Homo sapiens, read-out: TGI
  IC (TGI): 11.3 µM
ACHN; Log10 Concentration −4.0
  Percent Growth: −98%
ACHN; Log10 Concentration −5.0
  Percent Growth: 5%
ACHN; Log10 Concentration −6.0
  Percent Growth: 85%
ACHN; Log10 Concentration −7.0
  Percent Growth: 97%
ACHN; Log10 Concentration −8.0
  Percent Growth: 102%
SF-268; Homo sapiens, SF-268
  GI50: 16.2 µM
SF-268; Homo sapiens, SF-268, read-out: LC50
  CC50: 71.7 µM
SF-268; Homo sapiens, SF-268, read-out: TGI
  IC (TGI): 34 µM
SF-268; SF-268, Log10 Concentration −4.0
  Percent Growth: −72%
SF-268; SF-268, Log10 Concentration −5.0
  Percent Growth: 82%
SF-268; SF-268, Log10 Concentration −6.0
  Percent Growth: 102%
SF-268; SF-268, Log10 Concentration −7.0
  Percent Growth: 109%
SF-268; SF-268, Log10 Concentration −8.0
  Percent Growth: 106%
BT-549; BT-549, Log10 Concentration −4.0
  Percent Growth: −95%
BT-549; BT-549, Log10 Concentration −6.0
  Percent Growth: 85%
BT-549; BT-549, Log10 Concentration −7.0
  Percent Growth: 96%
BT-549; BT-549, Log10 Concentration −8.0
  Percent Growth: 96%
BT-549; Homo sapiens, BT-549
  GI50: 2.6 µM
BT-549; Homo sapiens, BT-549, read-out: LC50
  CC50: 33.6 µM
BT-549; Homo sapiens, BT-549, read-out: TGI
  IC (TGI): 10.1 µM
OVCAR-8; Homo sapiens, OVCAR-8
  GI50: 4.39 µM
OVCAR-8; Homo sapiens, OVCAR-8, read-out: LC50
  CC50: 65.1 µM
OVCAR-8; Homo sapiens, OVCAR-8, read-out: TGI
  IC (TGI): 18.5 µM
OVCAR-8; OVCAR-8, Log10 Concentration −4.0
  Percent Growth: −67%
OVCAR-8; OVCAR-8, Log10 Concentration −5.0
  Percent Growth: 25%
OVCAR-8; OVCAR-8, Log10 Concentration −6.0
  Percent Growth: 96%
OVCAR-8; OVCAR-8, Log10 Concentration −7.0
  Percent Growth: 100%
OVCAR-8; OVCAR-8, Log10 Concentration −8.0
  Percent Growth: 108%
M14; Homo sapiens, M14
  GI50: 5.58 µM
M14; Homo sapiens, M14, read-out: LC50
  CC50: 66.7 µM
M14; Homo sapiens, M14, read-out: TGI
  IC (TGI): 21.6 µM
M14; M14, Log10 Concentration −4.0
  Percent Growth: −68%
M14; M14, Log10 Concentration −5.0
  Percent Growth: 34%
M14; M14, Log10 Concentration −6.0
  Percent Growth: 97%
M14; M14, Log10 Concentration −7.0
  Percent Growth: 102%
M14; M14, Log10 Concentration −8.0
  Percent Growth: 100%
HS 578T; Log10 Concentration −4.0
  Percent Growth: −25%
HS 578T; Log10 Concentration −5.0
  Percent Growth: 28%
HS 578T; Log10 Concentration −6.0
  Percent Growth: 94%
HS 578T; Log10 Concentration −7.0
  Percent Growth: 96%
HS 578T; Log10 Concentration −8.0
  Percent Growth: 98%
HS 578T; Homo sapiens, Hs-578T
  GI50: 4.66 µM
HS 578T; Homo sapiens, Hs-578T, read-out: LC50
  CC50: ≥ 100 µM
HS 578T; Homo sapiens, Hs-578T, read-out: TGI
  IC (TGI): 33.9 µM
IGROV1; Homo sapiens, IGROV-1
  GI50: 14.4 µM
IGROV1; Homo sapiens, IGROV-1, read-out: LC50
  CC50: 78.9 µM
IGROV1; Homo sapiens, IGROV-1, read-out: TGI
  IC (TGI): 33.8 µM
IGROV1; Log10 Concentration −4.0
  Percent Growth: −64%
IGROV1; Log10 Concentration −5.0
  Percent Growth: 72%
IGROV1; Log10 Concentration −6.0
  Percent Growth: 102%
IGROV1; Log10 Concentration −7.0
  Percent Growth: 104%
IGROV1; Log10 Concentration −8.0
  Percent Growth: 106%
MCF7; Homo sapiens
  GI50: 2.65 µM
MCF7; Homo sapiens, 5-dose assay
  GI50: 2.85 µM
MCF7; Homo sapiens, MCF7, read-out: LC50
  CC50: 61.4 µM
MCF7; Homo sapiens, MCF7, read-out: TGI
  IC (TGI): 13 µM
MCF7; Log10 Concentration −4.0
  Percent Growth: −66%
MCF7; Log10 Concentration −5.0
  Percent Growth: 8%
MCF7; Log10 Concentration −6.0
  Percent Growth: 85%
MCF7; Log10 Concentration −8.0
  Percent Growth: 91%
TK-10; Homo sapiens
  GI50: 3.13 µM
TK-10; Homo sapiens, 5-dose assay
  GI50: 3.78 µM
TK-10; Homo sapiens, TK-10, read-out: LC50
  CC50: 37.5 µM
TK-10; Homo sapiens, TK-10, read-out: TGI
  IC (TGI): 12.9 µM
TK-10; Log10 Concentration −4.0
  Percent Growth: −96%
TK-10; Log10 Concentration −5.0
  Percent Growth: 12%
TK-10; Log10 Concentration −6.0
  Percent Growth: 102%
TK-10; Log10 Concentration −7.0
  Percent Growth: 104%
TK-10; Log10 Concentration −8.0
  Percent Growth: 101%
NCI-H226; Homo sapiens, NCI-H226
  GI50: 14.1 µM
NCI-H226; Homo sapiens, NCI-H226, read-out: LC50
  CC50: 81.3 µM
NCI-H226; Homo sapiens, NCI-H226, read-out: TGI
  IC (TGI): 33.8 µM
NCI-H226; NCI-H226, Log10 Concentration −4.0
  Percent Growth: −62%
NCI-H226; NCI-H226, Log10 Concentration −5.0
  Percent Growth: 70%
NCI-H226; NCI-H226, Log10 Concentration −6.0
  Percent Growth: 91%
NCI-H226; NCI-H226, Log10 Concentration −7.0
  Percent Growth: 92%
NCI-H226; NCI-H226, Log10 Concentration −8.0
  Percent Growth: 94%
MDA-MB-231/ATCC; Homo sapiens, MDA-MB-231
  GI50: 11.4 µM
MDA-MB-231/ATCC; Homo sapiens, MDA-MB-231, read-out: LC50
  CC50: 56.4 µM
MDA-MB-231/ATCC; Homo sapiens, MDA-MB-231, read-out: TGI
  IC (TGI): 25.4 µM
MDA-MB-231/ATCC; Log10 Concentration −4.0
  Percent Growth: −86%
MDA-MB-231/ATCC; Log10 Concentration −5.0
  Percent Growth: 58%
MDA-MB-231/ATCC; Log10 Concentration −6.0
  Percent Growth: 96%
MDA-MB-231/ATCC; Log10 Concentration −7.0
  Percent Growth: 100%
MDA-MB-231/ATCC; Log10 Concentration −8.0
  Percent Growth: 103%
